# Read-outs that look alike come from different tables or passages of the source.
# Key:
# [1] = system: L. donovani axenic amastigotes; test: In vitro anti-leishmania activity (IC50 vs. L. donovani axenic amastigotes); assay type: cell-based; details: Leishmania donovani
# [2] = system: Trypanosoma brucei rhodesiense; test: Anti-protozoan data: T.b.r. IC50; assay type: cell-based; details: read-out: T.b.r. IC50
# [3] = system: Plasmodium falciparum; test: Anti-protozoan data: P. falcip. IC50; assay type: cell-based; details: read-out: P. falcip. IC50
# [4] = in vitro
# [5] = system: Trypanosoma cruzi; test: Anti-protozoan data: T. cruzi IC50; assay type: cell-based; details: read-out: T. cruzi IC50
# [6] = Tables VI(a), VI(c), read-out: Leishmania donovani IC50
# [7] = axenic amastigotes, Tables I-V, read-out: IC50 vs. L. donovani
SMILES,"IC50 [1, 6] [µM]","IC50 [1, 7] [µM]","IC50 ([2]; Tables VI(a), VI(c)) [µM]","IC50 ([3]; Tables VI(a), VI(c)) [µM]",melting point,IC50 [4] [µM],IC50 ([1]; read-out: L. Donovani IC50) [µM],IC50 [2] [µM],IC50 [5] [µM],IC50 [3] [µM],"IC50 ([5]; Tables VI(a), VI(c)) [µM]"
"CC(C)NC(=N)c1ccc(OCCCCOc2cccc(-c3cc4cc(C(=N)NC(C)C)ccc4o3)c2)cc1.Cl.Cl [Compound 36, 2-(3-(4-(4-(N-Isopropylcarbamimidoyl)phenoxy)butoxy)phenyl)-N-isopropylbenzofuran-5-carboxamidine dihydrochloride]",11.2 ± 0.04,11.2 ± 0.04,0.537,0.269,207 to 210 °C,36.5,–,–,–,–,–
"Cl.Cl.c1cc(OCCCCOc2ccc(C3=NCCN3)cc2)cc(-c2cc3cc(C4=NCCN4)ccc3o2)c1 [Compound 37, 2-(2-(3-(4-(4-(4,5-Dihydro-1H-imidazol-2-yl)phenoxy)butoxy)phenyl)benzofuran-5-yl)-4,5-dihydro-1H-imidazole dihydrochloride]",11.7 ± 0.14,11.7 ± 0.14,1.17,0.0986,190 to 195 °C,9.52,–,–,–,–,–
"Cl.Cl.N=C(N)c1ccc(OCCCCCCOc2cccc(-c3cc4cc(C(=N)N)ccc4o3)c2)cc1 [Compound 41, 2-(3-(6-(4-Carbamimidoylphenoxy)hexyloxy)phenyl)benzofuran-5-carboxamidine dihydrochloride]",22.6 ± 0.23,22.6 ± 0.23,1.61,0.43,208 to 210 °C,3.12,–,–,–,–,–
"CC(C)NC(=N)c1ccc(OCCCCCCOc2cccc(-c3cc4cc(C(=N)NC(C)C)ccc4o3)c2)cc1.Cl.Cl [Compound 42, 2-(3-(6-(4-(N-Isopropylcarbamimidoyl)phenoxy)hexyloxy)phenyl)-N-isopropylbenzofuran-5-carboxamidine dihydrochloride]",6.97 ± 1.39,6.97 ± 1.39,1.16,0.183,224 to 227 °C,7.36,–,–,–,–,–
"c1cc(OCCCCCCOc2ccc(C3=NCCN3)cc2)cc(-c2cc3cc(C4=NCCN4)ccc3o2)c1 [Compound 43, 2-(2-(3-(6-(4-(4,5-Dihydro-1H-imidazol-2-yl)phenoxy)hexyloxy)phenyl)benzofuran-5-yl)-4,5-dihydro-1H-imidazole]",1.92 ± 0.19,–,0.996,0.0494,–,2.46,–,–,–,–,–
"CC(C)NC(=N)c1ccc(OCCCCOc2cccc(-c3cc4ccc(C(=N)NC(C)C)cc4o3)c2)cc1.Cl.Cl [Compound 60, 2-(3-(4-(4-(N-Isopropylcarbamimidoyl)phenoxy)butoxy)phenyl)-N-isopropylbenzofuran-6-carboxamidine dihydrochloride]",12.3 ± 0.09,12.3 ± 0.09,0.936,0.178,228 to 230 °C,46.5,–,–,–,–,–
"Cl.Cl.N=C(N)c1ccc(OCCCCCCOc2cccc(-c3cc4ccc(C(=N)N)cc4o3)c2)cc1 [Compound 65, 2-(3-(6-(4-Carbamimidoylphenoxy)hexyloxy)phenyl)benzofuran-6-carboxamidine dihydrochloride]",23.6 ± 1.09,23.6 ± 1.09,1.22,0.479,268 to 271 °C,4.33,–,–,–,–,–
"CC(C)NC(=N)c1ccc(OCCCCCCOc2cccc(-c3cc4ccc(C(=N)NC(C)C)cc4o3)c2)cc1.Cl.Cl [Compound 66, 2-(3-(6-(4-(N-Isopropylcarbamimidoyl)phenoxy)hexyloxy)phenyl)-N-isopropylbenzofuran-6-carboxamidine dihydrochloride]",6.18 ± 0.06,6.18 ± 0.06,0.42,0.347,283 to 285 °C,10.1,–,–,–,–,–
"Cl.Cl.N=C(N)c1ccc(OCCCCCOc2ccc(-c3cc4ccc(C(=N)N)cc4o3)cc2)cc1 [Compound 74, 2-(4-(5-(4-Carbamimidoylphenoxy)pentyloxy)phenyl)benzofuran-6-carboxamidine dihydrochloride]",2.9 ± 0.14,–,0.314,0.268,285 °C (dec.),8.98,–,–,–,–,–
"Cl.Cl.N=C(N)c1ccc(OCCCCCCOc2ccc(-c3cc4ccc(C(=N)N)cc4o3)cc2)cc1 [Compound 77, 2-(4-(6-(4-Carbamimidoylphenoxy)hexyloxy)phenyl)benzofuran-6-carboxamidine dihydrochloride]",–,–,0.416,0.28,310 to 311 °C,8.02,–,–,–,–,–
"CC(C)NC(=N)c1ccc(-c2cc3cc(C(=N)NC(C)C)ccc3o2)cc1 [Compound 164, 2-(4-(N-isopropylcarbamimidoyl)phenyl)-N-isopropylbenzofuran-5-carboxamidine]",–,–,–,–,–,> 198,1.58 ± 1.09,0.125,> 198,0.073,–
"N=C(N)c1cccc(-c2cc3ccc(C(=N)N)cc3o2)c1 [Compound 169, 2-(3-carbamimidoylphenyl)benzofuran-6-carboxamidine]",–,14.4,–,–,–,131,14.4,0.021,–,0.0035,–
"CC(C)NC(=N)c1cccc(-c2cc3ccc(C(=N)NC(C)C)cc3o2)c1 [Compound 170, 2-(3-(N-isopropylcarbamimidoyl)phenyl)-N-isopropylbenzofuran-6-carboxamidine]",–,24.4 ± 0.1,–,–,–,> 200,24.4 ± 0.1,0.534,–,0.0586,–
"c1cc(C2=NCCN2)cc(-c2cc3ccc(C4=NCCN4)cc3o2)c1 [Compound 171, 2-(3-(6-(4,5-dihydro-1H-imidazol-2-yl)benzofuran-2-yl)phenyl)-4,5-dihydro-1H-imidazole]",–,> 100,–,–,–,12.8,> 100,0.333,–,0.205,–
"N=C(N)c1ccc(-c2cc3ccc(C(=N)N)cc3o2)cc1 [Compound 172, 2-(4-carbamimidoylphenyl)benzofuran-6-carboxamidine]",–,3.13 ± 0.15,–,–,–,0.83,3.13 ± 0.15,0.0069,–,0.0031,–
"CC(C)NC(=N)c1ccc(-c2cc3ccc(C(=N)NC(C)C)cc3o2)cc1 [Compound 173, 2-(4-(N-isopropylcarbamimidoyl)phenyl)-N-isopropylbenzofuran-6-carboxamidine]",–,11.8 ± 1.28,–,–,–,> 199,11.8 ± 1.28,0.148,–,0.0145,–
"c1cc(-c2cc3ccc(C4=NCCN4)cc3o2)ccc1C1=NCCN1 [Compound 174, 2-(4-(6-(4,5-dihydro-1H-imidazol-2-yl)benzofuran-2-yl)phenyl)-4,5-dihydro-1H-imidazole]",–,> 50,–,–,–,4.52,> 50,0.319,–,0.109,–
"COc1cc(C(=N)N)cc2cc(-c3ccc(C(=N)N)cc3)oc12 [Compound 175, 2-(4-carbamimidoylphenyl)-7-methoxybenzofuran-5-carboxamidine]",–,3 ± 0.56,–,–,–,30.7,3 ± 0.56,0.006,–,0.0056,–
"COc1cc(C2=NCCN2)cc2cc(-c3ccc(C4=NCCN4)cc3)oc12 [Compound 177, 2-(4-(5-(4,5-dihydro-1H-imidazol-2-yl)-7-methoxybenzofuran-2-yl)phenyl)-4,5-dihydro-1H-imidazole]",–,4.45 ± 0.36,–,–,–,19.9,4.45 ± 0.36,0.124,–,0.0323,–
"CONC(=N)c1ccc(-c2cc3cc(C(=N)NOC)ccc3o2)cc1 [Compound 179, 2-(4-(N-Methoxycarbamimidoyl)phenyl)-N-methoxybenzofuran-5-carboxamidine]",–,–,–,–,–,> 219,> 100,75.4,> 219,2.5,–
"N=C(NO)c1cccc(-c2cc3ccc(C(=N)NO)cc3o2)c1 [Compound 180, 2-(3-(N-Hydroxycarbamimidoyl)phenyl)-N-hydroxybenzofuran-6-carboxamidine]",–,–,–,–,–,13.8,68.5 ± 6.16,37.8,–,1.85,–
"N=C(NO)c1ccc(-c2cc3ccc(C(=N)NO)cc3o2)cc1 [Compound 181, 2-(4-(N-Hydroxycarbamimidoyl)phenyl)-N-hydroxybenzofuran-6-carboxamidine]",–,–,–,–,–,> 222,> 100,3.1,–,0.609,–
"N=C(NO)c1ccc2cc(CCCCCc3cc4ccc(C(=N)NO)cc4o3)oc2c1 [Compound 184, 2-(5-(6-(N-Hydroxycarbamimidoyl)benzofuran-2-yl)pentyl)-N-hydroxybenzofuran-6-carboxamidine]",22.2 ± 0.64,–,2.2,17.2,–,19.4,–,–,–,–,4.9
"N=C(NO)c1ccc2oc(CCCc3cc4cc(C(=N)NO)ccc4o3)cc2c1 [Compound 185, 2-(3-(5-(N-Hydroxycarbamimidoyl)benzofuran-2-yl)propyl)-N-hydroxybenzofuran-5-carboxamidine]",> 50,–,4.79,> 2,–,23.8,–,–,–,–,9.4
"N=C(NO)c1ccc2oc(CCCCc3cc4cc(C(=N)NO)ccc4o3)cc2c1 [Compound 186, 2-(4-(5-(N-Hydroxycarbamimidoyl)benzofuran-2-yl)butyl)-N-hydroxybenzofuran-5-carboxamidine]",> 100,–,4.87,> 2,–,> 184,–,–,–,–,152
"N=C(NO)c1ccc2oc(CCc3cc4cc(C(=N)NO)ccc4o3)cc2c1 [Compound 190, 2-(2-(5-(N-Hydroxycarbamimidoyl)benzofuran-2-yl)ethyl)-N-hydroxybenzofuran-5-carboxamidine]",–,–,10.1,0.4,–,> 199,–,–,–,–,–
